According to US20200113853A1, “GAMMA-HYDROXYBUTYRATE COMPOSITIONS AND THEIR USE FOR THE TREATMENT OF DISORDERS” (Jazz Pharmaceuticals Ireland Limited, priority 2017, published 2020):

How the values were obtained:
[1] = Maximum solubility of GHB as a function of pH of the aqueous medium; format: physicochemical
Method: It will be understood that the maximum solubility of GHB is affected by the pH of the aqueous medium. For example, at about pH 4, the maximum amount of Na⋅GHB that can be dissolved is about 450 mg/mL.

[2] = 2.25 g and 4.45 g doses, relative to IV administration; cited from earlier work
[3] = generally considered; Yu et al.; cited from earlier work

| SMILES | minimal pH that will dissolve 750 mg/mL GHB ([1]; 750 mg/mL) | absolute bioavailability [2] [%] | solubility class [3] | maximum amount that can be dissolved ([1]; at about pH 4, aqueous medium) |
| --- | --- | --- | --- | --- |
| O=C(O)CCCO [GHB, gamma-hydroxybutyrate] | ~6.8 |  |  |  |
| O=C([O-])CCCO.[Na+] [sodium oxybate, sodium gamma-hydroxybutyrate] |  | 88 | high solubility | about 450 mg/mL |
